Consider 17 compounds from patent US20180148418A1, “AMIDO-SUBSTITUTED CYCLOHEXANE DERIVATIVES” (Bayer Pharma Aktiengesellschaft, priority 2015, published 2018).

What is called IC50 is the midpoint of a concentration-inhibition curve. A high value points to weaker potency.

Experiment [1] deals with wildtype Wnt signaling cascade. Nature of the experiment: HEK293 TOP assay (Super TopFlash luciferase reporter, Wnt-3a stimulated). Type of experiment: cell-based. The following applies: Homo sapiens, HEK293 TOP reporter cells, Wnt3a at EC50, 16 hours. Summed up:
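HEK293 cells stably carrying Super TopFlash (TOP) run in parallel with FOP cells, 10000/well plated 24 h ahead, stimulated with recombinant human Wnt-3a. Compounds tested 50 μM to 15 nM in 3.16-fold steps in CAFTY buffer pH 7.4 with 2 mM Ca^2+ and 0.01% BSA; luciferase read-out.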
Background: Reporter assays use an easily measured gene product as a stand-in for the process of interest.

Another experiment concerns the target T1, TNKS2 (Homo sapiens, UniProt Q9H2K2).
T1 construct: purchased BPS Bioscience, San Diego, USA 80572 (TNKS2 Histone Ribosylation Assay Kit)
T1 sequence (Q9H2K2 1-1166): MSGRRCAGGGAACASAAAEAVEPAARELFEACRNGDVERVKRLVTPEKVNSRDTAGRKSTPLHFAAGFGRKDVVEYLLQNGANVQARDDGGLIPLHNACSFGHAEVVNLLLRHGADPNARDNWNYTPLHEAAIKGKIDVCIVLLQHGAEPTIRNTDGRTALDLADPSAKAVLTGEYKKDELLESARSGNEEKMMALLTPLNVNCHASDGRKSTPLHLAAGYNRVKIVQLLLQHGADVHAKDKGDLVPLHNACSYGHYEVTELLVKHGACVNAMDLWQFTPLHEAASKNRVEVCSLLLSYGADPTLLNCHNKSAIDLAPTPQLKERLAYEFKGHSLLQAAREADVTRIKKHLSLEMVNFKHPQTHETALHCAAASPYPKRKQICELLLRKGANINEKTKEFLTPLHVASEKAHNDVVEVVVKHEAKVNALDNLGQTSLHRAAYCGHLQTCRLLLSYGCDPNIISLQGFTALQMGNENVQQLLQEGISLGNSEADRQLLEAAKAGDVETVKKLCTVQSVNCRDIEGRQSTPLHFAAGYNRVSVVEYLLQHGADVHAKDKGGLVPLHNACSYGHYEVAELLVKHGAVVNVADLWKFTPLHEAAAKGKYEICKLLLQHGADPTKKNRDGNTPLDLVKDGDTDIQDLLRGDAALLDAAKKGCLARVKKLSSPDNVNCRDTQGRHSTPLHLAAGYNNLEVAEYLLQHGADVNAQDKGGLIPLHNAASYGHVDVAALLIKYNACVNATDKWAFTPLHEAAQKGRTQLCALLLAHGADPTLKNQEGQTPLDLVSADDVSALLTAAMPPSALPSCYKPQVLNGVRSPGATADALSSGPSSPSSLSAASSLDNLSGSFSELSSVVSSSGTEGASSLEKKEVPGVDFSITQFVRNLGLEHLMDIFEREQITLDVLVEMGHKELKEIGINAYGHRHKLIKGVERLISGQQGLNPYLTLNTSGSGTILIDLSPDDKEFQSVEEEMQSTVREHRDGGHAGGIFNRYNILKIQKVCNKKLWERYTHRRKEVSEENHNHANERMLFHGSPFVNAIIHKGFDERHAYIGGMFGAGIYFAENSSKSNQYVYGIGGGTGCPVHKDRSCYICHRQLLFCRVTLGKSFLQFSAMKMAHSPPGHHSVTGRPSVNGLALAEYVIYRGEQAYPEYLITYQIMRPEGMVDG
Kind of experiment: TNKS2 Assay B (auto-parsylation, [3H]-NAD+ SPA). It is filed as biochemical. The conditions noted are these: 6 nM TNKS2, auto-parsylation, over night at room temperature.

Experiment [2] relates to HEK293 cells cotransfected with the FOP control vector. Kind of experiment: HEK293 FOP assay (control reporter with non-functional TCF elements). It is filed as cell-based. The following applies: Homo sapiens, 16 hours. In a few lines:
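Stable HEK293 line carrying FOP control reporter (randomized non-functional TCF sites, with pcDNA3), Geneticin-selected, plated 24 h before assay. Stimulated with recombinant human Wnt-3a (2500-5 ng/ml) and compounds 50 μM–15 nM (3.16-fold steps) in CAFTY buffer pH 7.4 with 2 mM Ca2+, 0.01% BSA, run parallel to TOP line.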

Bounds are passed on as bounds.

On to `Cc1cc(N2CCC[C@]3(CC[C@@H](NC(=O)c4[nH]cnc4C(=O)NC(C)C)CC3)C2=O)c(Cl)cc1F` [Example 310, N^5-[(trans)-2-(2-chloro-4-fluoro-5-methylphenyl)-1-oxo-2-azaspiro[5.5]undec-9-yl]-N^4-(propan-2-yl)-1H-imidazole-4,5-dicarboxamide], for which the IC50 in experiment [1] (HEK293, 16 h) came out at 15 nM; on TNKS2, 270 nM; in experiment [2], 13000 nM.

For the compound `Cc1cc(N2CCC[C@]3(CC[C@@H](NC(=O)c4[nH]cnc4C(=O)N4CC5(COC5)C4)CC3)C2=O)c(Cl)cc1F` [Example 311, N-[(trans)-2-(2-chloro-4-fluoro-5-methylphenyl)-1-oxo-2-azaspiro[5.5]undec-9-yl]-4-(2-oxa-6-azaspiro[3.3]hept-6-ylcarbonyl)-1H-imidazole-5-carboxamide], the IC50 in experiment [1] (HEK293, 16 h) is 30 nM; on TNKS2, 41 nM; in experiment [2], at least 50000 nM.

As to `Cc1cc(N2CCC[C@]3(CC[C@@H](NC(=O)c4[nH]cnc4C(=O)NCCN4CCC(C)CC4)CC3)C2=O)c(Cl)cc1F` [Example 312, N^5-[(trans)-2-(2-chloro-4-fluoro-5-methylphenyl)-1-oxo-2-azaspiro[5.5]undec-9-yl]-N^4-[2-(4-methylpiperidin-1-yl)ethyl]-1H-imidazole-4,5-dicarboxamide], the IC50 was 24 nM in experiment [1] (HEK293, 16 h); 4.1 nM against TNKS2; at least 500 nM in experiment [2].

Regarding `O=C(N[C@H]1CC[C@@]2(CCCN(c3cc(F)c(F)cc3Cl)C2=O)CC1)c1cnn2cccnc12` [Example 313, N-[(trans)-2-(2-chloro-4,5-difluorophenyl)-1-oxo-2-azaspiro[5.5]undec-9-yl]pyrazolo[1,5-a]pyrimidine-3-carboxamide], the half-inhibitory concentration (IC50) in experiment [1] (HEK293, 16 h) is 2.7 nM; at TNKS2, 10 nM; in experiment [2] it was at least 500 nM.

As for `O=C(N[C@H]1CC[C@@]2(CCCN(c3cc(F)c(F)cc3Cl)C2=O)CC1)c1cnc2cccnn12` [Example 314, N-[(trans)-2-(2-chloro-4,5-difluorophenyl)-1-oxo-2-azaspiro[5.5]undec-9-yl]imidazo[1,2-b]pyridazine-3-carboxamide], the concentration for half-maximal inhibition (IC50) was 6.3 nM in experiment [1] (HEK293, 16 h); 22 nM against TNKS2; at least 500 nM in experiment [2].

Turning to `Cc1cc(C)n2ncc(C(=O)N[C@H]3CC[C@@]4(CCCN(c5cc(F)c(F)cc5Cl)C4=O)CC3)c2n1` [Example 315, N-[(trans)-2-(2-chloro-4,5-difluorophenyl)-1-oxo-2-azaspiro[5.5]undec-9-yl]-5,7-dimethylpyrazolo[1,5-a]pyrimidine-3-carboxamide], the half-maximal inhibitory concentration (IC50) is 3.9 nM in experiment [1] (HEK293, 16 h); 14 nM against TNKS2; at least 500 nM in experiment [2].

As for `O=C(N[C@H]1CC[C@@]2(CCCN(c3cc(F)c(F)cc3Cl)C2=O)CC1)c1[nH]cnc1C(=O)N1CC(F)C1` [Example 316, N-[(trans)-2-(2-chloro-4,5-difluorophenyl)-1-oxo-2-azaspiro[5.5]undec-9-yl]-4-[(3-fluoroazetidin-1-yl)carbonyl]-1H-imidazole-5-carboxamide], the half-maximal inhibitory concentration (IC50) in experiment [1] (HEK293, 16 h) is 1.6 nM; against TNKS2, 5 nM; in experiment [2] it was at least 500 nM.

As to `CNC(=O)c1nc[nH]c1C(=O)N[C@H]1CC[C@@]2(CCCN(c3cc(F)c(F)cc3Cl)C2=O)CC1` [Example 317, N^5-[(trans)-2-(2-chloro-4,5-difluorophenyl)-1-oxo-2-azaspiro[5.5]undec-9-yl]-N^4-methyl-1H-imidazole-4,5-dicarboxamide], the IC50 in experiment [1] (HEK293, 16 h) is 1.4 nM; against TNKS2 it was 8.7 nM; in experiment [2], at least 500 nM.

`CCNC(=O)c1nc[nH]c1C(=O)N[C@H]1CC[C@@]2(CCCN(c3cc(F)c(F)cc3Cl)C2=O)CC1` [Example 318, N^5-[(trans)-2-(2-chloro-4,5-difluorophenyl)-1-oxo-2-azaspiro[5.5]undec-9-yl]-N^4-ethyl-1H-imidazole-4,5-dicarboxamide]: the IC50 was 2 nM in experiment [1] (HEK293, 16 h); 8.7 nM against TNKS2; at least 500 nM in experiment [2].

Turning to `CC(C)n1nc(C(=O)N[C@H]2CC[C@@]3(CCN(c4ccc(F)cc4Cl)C3=O)CC2)c2ccc(Br)cc21` [Example 319, 6-bromo-N-[(trans)-2-(2-chloro-4-fluorophenyl)-1-oxo-2-azaspiro[4.5]dec-8-yl]-1-isopropyl-1H-indazole-3-carboxamide], the 50% inhibitory concentration (IC50) in experiment [1] was at least 50000 nM; on TNKS2, over 10000 nM; in experiment [2], at least 50000 nM.

`NC(=O)c1nc[nH]c1C(=O)N[C@H]1CC[C@@]2(CCCN(c3cc(F)c(F)cc3Cl)C2=O)CC1` [Example 320, N^5-[(trans)-2-(2-chloro-4,5-difluorophenyl)-1-oxo-2-azaspiro[5.5]undec-9-yl]-1H-imidazole-4,5-dicarboxamide]: the half-inhibitory concentration (IC50) was 27 nM in experiment [1] (HEK293, 16 h); 9.4 nM against TNKS2; at least 50000 nM in experiment [2].

On to `CC(C)NC(=O)c1nc[nH]c1C(=O)N[C@H]1CC[C@@]2(CCCN(c3cc(F)c(F)cc3Cl)C2=O)CC1` [Example 321, N^5-[(trans)-2-(2-chloro-4,5-difluorophenyl)-1-oxo-2-azaspiro[5.5]undec-9-yl]-N^4-(propan-2-yl)-1H-imidazole-4,5-dicarboxamide], for which the IC50 in experiment [1] (HEK293, 16 h) was 6 nM; against TNKS2 it was 52 nM; in experiment [2], 24000 nM.

As to `O=C(N[C@H]1CC[C@@]2(CCCN(c3cc(F)c(F)cc3Cl)C2=O)CC1)c1[nH]cnc1C(=O)N1CC(OC(F)F)C1` [Example 322, N-[(trans)-2-(2-chloro-4,5-difluorophenyl)-1-oxo-2-azaspiro[5.5]undec-9-yl]-4-{[3-(difluoromethoxy)azetidin-1-yl]carbonyl}-1H-imidazole-5-carboxamide], the IC50 in experiment [1] (HEK293, 16 h) was found to be 1.4 nM; at TNKS2, 12 nM; in experiment [2], 21000 nM.

For `O=C(N[C@H]1CC[C@@]2(CCCN(c3cc(F)c(F)cc3Cl)C2=O)CC1)c1[nH]cnc1C(=O)N1CCOCC1` [Example 323, N-[(trans)-2-(2-chloro-4,5-difluorophenyl)-1-oxo-2-azaspiro[5.5]undec-9-yl]-4-(morpholin-4-ylcarbonyl)-1H-imidazole-5-carboxamide], the IC50 is 97 nM in experiment [1] (HEK293, 16 h); 930 nM against TNKS2; at least 50000 nM in experiment [2].

Regarding `O=C(NC1CC1)c1nc[nH]c1C(=O)N[C@H]1CC[C@@]2(CCCN(c3cc(F)c(F)cc3Cl)C2=O)CC1` [Example 324, N^5-[(trans)-2-(2-chloro-4,5-difluorophenyl)-1-oxo-2-azaspiro[5.5]undec-9-yl]-N^4-cyclopropyl-1H-imidazole-4,5-dicarboxamide], the IC50 is 3 nM in experiment [1] (HEK293, 16 h); 19 nM on TNKS2; at least 500 nM in experiment [2].

On to `O=C(N[C@H]1CC[C@@]2(CCCN(c3ccc(F)cc3Cl)C2=O)CC1)c1cnn2cccnc12` [Example 325, N-[(trans)-2-(2-chloro-4-fluorophenyl)-1-oxo-2-azaspiro[5.5]undec-9-yl]pyrazolo[1,5-a]pyrimidine-3-carboxamide], for which the half-inhibitory concentration (IC50) is 23 nM in experiment [1] (HEK293, 16 h); 100 nM against TNKS2; at least 50000 nM in experiment [2].

As for `O=C(N[C@H]1CC[C@@]2(CCCN(c3ccc(F)cc3Cl)C2=O)CC1)c1cnc2cccnn12` [Example 326, N-[(trans)-2-(2-chloro-4-fluorophenyl)-1-oxo-2-azaspiro[5.5]undec-9-yl]imidazo[1,2-b]pyridazine-3-carboxamide], the IC50 in experiment [1] (HEK293, 16 h) was 60 nM; on TNKS2, 180 nM; in experiment [2] it was at least 50000 nM.
